A word on the Ki: it is a measure of affinity in units of concentration, obtained from inhibition or displacement.

The structures appear in SMILES notation.

The record followed here is US10544150B2, “NK-3 receptor selective antagonist compounds, pharmaceutical composition and methods for use in NK-3 receptors mediated disorders” (Ogeda SA, priority 2010, dated 2020).

The target of this assay is human NK-3 receptor (Homo sapiens (Human), UniProt P29371). As to the kind of experiment: 3H-SB222200 binding competition assay with human NK-3 receptor. To be noted: 3H-SB222200 displacement, CHO cell membranes expressing human NK3 receptor; read-out: Ki range. How it is done:
The affinity of compounds of the invention for the tachykinin receptors was determined by measuring the ability of the compounds of the invention to displace a radiolabeled ligand from its specifics binding site.
^3H-SB222200 Binding Competition Assay with Human NK-3 Receptor
The ability of the compounds of the invention to inhibit the binding of the NK-3 receptor selective antagonist SB222200 was assessed by an in vitro radioligand binding assay. Membranes were prepared from Chinese hamster ovary recombinant cells which express the human NK3 receptor. The membranes were incubated with 5 nM ^3H-SB222200_(ARC) in a HEPES 25 mM/NaCl 0.1M/CaCl2 1 mM/MgCl2 5 Mm/BSA 0.5%/Saponin 10 μg/ml buffer at pH 7.4 and various concentrations of the compounds of the invention. The amount of tritiated SB222200 bound to the receptor was determined after filtration by the quantification of membrane associated radioactivity using the TopCount-NXT reader (Packard). […] In Table 3 biological results obtained using the ^3H-SB222200 binding competition assay with compounds of the invention are set out in tabulated form. In this table the calculated Ki is given. The Ki value obtained (in accordance with the protocol set forth above) is represented as follows: “+++” means Ki<500 nM; “++” means 500 nM≤Ki≤1 μM; “+” means 1 μM<Ki≤5 μM; “#” means Ki>5 μM.

Chain of human NK-3 receptor (P29371 whole entry): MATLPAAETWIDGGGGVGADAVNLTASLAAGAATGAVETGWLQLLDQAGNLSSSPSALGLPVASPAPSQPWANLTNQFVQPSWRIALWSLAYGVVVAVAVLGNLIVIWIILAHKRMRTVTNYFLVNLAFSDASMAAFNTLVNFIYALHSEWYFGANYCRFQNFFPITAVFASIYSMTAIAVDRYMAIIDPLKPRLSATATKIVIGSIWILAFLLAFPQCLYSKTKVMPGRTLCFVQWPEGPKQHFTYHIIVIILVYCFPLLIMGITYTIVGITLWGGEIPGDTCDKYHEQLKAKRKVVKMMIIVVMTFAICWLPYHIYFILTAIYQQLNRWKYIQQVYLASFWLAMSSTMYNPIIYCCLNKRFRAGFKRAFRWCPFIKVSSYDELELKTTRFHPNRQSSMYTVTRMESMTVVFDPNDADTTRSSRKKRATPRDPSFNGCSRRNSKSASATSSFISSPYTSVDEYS

Regarding `Cc1ccc(-c2ccc(C(=O)N3CCn4c(-c5csc(-c6ccc(F)cc6)n5)nnc4C3C)cc2)s1` (stereo not shown) [Compound 215, (3-(2-(4-fluorophenyl)thiazol-4-yl)-8-methyl-5,6-dihydro-[1,2,4]triazolo[4,3-a]pyrazin-7(8H)-yl)(4-(5-methylthiophen-2-yl)phenyl)methanone], the inhibition constant Ki is below 0.5 µM. Then `O=C(c1ccc(-c2ccccc2)nc1)N1CCn2c(nnc2-c2ccc3ccccc3n2)C1` [Compound 91, (6-phenylpyridin-3-yl)(3-(quinolin-2-yl)-5,6-dihydro-[1,2,4]triazolo[4,3-a]pyrazin-7(8H)-yl)methanone], with below 0.5 µM; and `C[C@@H]1c2nnc(-c3nc(-c4ccc(F)cc4)no3)n2CCN1C(=O)c1ccc(-c2cccs2)cc1` [Compound 169, (R)-(3-(3-(4-fluorophenyl)-1,2,4-oxadiazol-5-yl)-8-methyl-5,6-dihydro-[1,2,4]triazolo[4,3-a]pyrazin-7(8H)-yl)(4-(thiophen-2-yl)phenyl)methanone], with below 0.5 µM; and `CC1c2nnc(-c3coc(-c4ccccc4)n3)n2CCN1C(=O)c1ccc(F)cc1` (stereo not shown) [Compound 48, (4-fluorophenyl)(8-methyl-3-(2-phenyloxazol-4-yl)-5,6-dihydro-[1,2,4]triazolo[4,3-a]pyrazin-7(8H)-yl)methanone], with below 0.5 µM.

Consider `O=C(c1ccc(Cl)cc1)N1CCn2c(nnc2-c2ccccn2)C1` [Compound 2, (4-chlorophenyl)(3-(pyridin-2-yl)-5,6-dihydro-[1,2,4]triazolo[4,3-a]pyrazin-7(8H)-yl)methanone], for which the inhibition constant Ki fell in the range of 1 to 5 µM.

Take `O=C(c1ccc(F)cc1)N1CCn2c(nnc2-c2csc(-c3ccc(F)cc3F)n2)C1` [Compound 29, (3-(2-(2,4-difluorophenyl)thiazol-4-yl)-5,6-dihydro-[1,2,4]triazolo[4,3-a]pyrazin-7(8H)-yl)(4-fluorophenyl)methanone]: the inhibition constant (Ki) is below 0.5 µM. To `C[C@@H]1c2nnc(-c3csc(N4CCOCC4)n3)n2CCN1C(=O)c1ccc(-c2cccs2)cc1` [Compound 136, (R)-(8-methyl-3-(2-morpholinothiazol-4-yl)-5,6-dihydro-[1,2,4]triazolo[4,3-a]pyrazin-7(8H)-yl)(4-(thiophen-2-yl)phenyl)methanone] belongs below 0.5 µM; to `Cn1nc(-c2nnc3n2CCN(C(=O)c2ccc(-c4cccs4)cc2)C3)cc1-c1ccccc1` [Compound 222, (3-(1-methyl-5-phenyl-1H-pyrazol-3-yl)-5,6-dihydro-[1,2,4]triazolo[4,3-a]pyrazin-7(8H)-yl)(4-(thiophen-2-yl)phenyl)methanone], below 0.5 µM; to `O=C(c1cc(-c2ccc(Oc3ccccc3)cc2)n[nH]1)N1CCn2c(nnc2-c2ccccn2)C1` [Compound 18, (3-(4-phenoxyphenyl)-1H-pyrazol-5-yl)(3-(pyridin-2-yl)-5,6-dihydro-[1,2,4]triazolo[4,3-a]pyrazin-7(8H)-yl)methanone], 1 to 5 µM.

Consider `O=C(c1ccc(-c2cccs2)cc1)N1CCn2c(nnc2-c2noc(-c3ccccc3)n2)C1` [Compound 171, (3-(5-phenyl-1,2,4-oxadiazol-3-yl)-5,6-dihydro-[1,2,4]triazolo[4,3-a]pyrazin-7(8H)-yl)(4-(thiophen-2-yl)phenyl)methanone], for which the Ki was below 0.5 µM. Regarding `O=C(c1ccc(F)cc1)N1CCn2c(nnc2-c2csc(-c3ccc(N4CCCC4)cc3)n2)C1` [Compound 246, (4-fluorophenyl)(3-(2-(4-(pyrrolidin-1-yl)phenyl)thiazol-4-yl)-5,6-dihydro-[1,2,4]triazolo[4,3-a]pyrazin-7(8H)-yl)methanone], the Ki was below 0.5 µM. To `CN1CCN(c2ccc(-c3nc(-c4nnc5n4CCN(C(=O)c4ccc(F)cc4)C5)cs3)cc2)CC1` [Compound 242, (4-fluorophenyl)(3-(2-(4-(4-methylpiperazin-1-yl)phenyl)thiazol-4-yl)-5,6-dihydro-[1,2,4]triazolo[4,3-a]pyrazin-7(8H)-yl)methanone] belongs 0.5 to 1 µM.

As to `N#Cc1ccc(-c2nc(-c3nnc4n3CCN(C(=O)c3ccc(-c5cccs5)cc3)C4)cs2)cc1` [Compound 236, 4-(4-(7-(4-(thiophen-2-yl)benzoyl)-5,6,7,8-tetrahydro-[1,2,4]triazolo[4,3-a]pyrazin-3-yl)thiazol-2-yl)benzonitrile], the inhibition constant Ki was below 0.5 µM. To `N#Cc1ccc(-c2ccc(C(=O)N3CCn4c(nnc4-c4ccc5ccccc5n4)C3)cc2)cc1` [Compound 103, 4′-(3-(quinolin-2-yl)-5,6,7,8-tetrahydro-[1,2,4]triazolo[4,3-a]pyrazine-7-carbonyl)-[1,1′-biphenyl]-4-carbonitrile] belongs 1 to 5 µM; to `C[C@@H]1c2nnc(-c3ccccn3)n2CCN1C(=O)c1ccc(F)cc1` [Compound 44, (R)-(4-fluorophenyl)(8-methyl-3-(pyridin-2-yl)-5,6-dihydro-[1,2,4]triazolo[4,3-a]pyrazin-7(8H)-yl)methanone], 1 to 5 µM; to `COc1ccccc1-c1nc(-c2nnc3n2CCN(C(=O)c2ccc(-c4ccccc4)cc2)C3)cs1` [Compound 203, [1,1′-biphenyl]-4-yl(3-(2-(2-methoxyphenyl)thiazol-4-yl)-5,6-dihydro-[1,2,4]triazolo[4,3-a]pyrazin-7(8H)-yl)methanone], 0.5 to 1 µM. As for `COc1ccccc1-c1nc(-c2nnc3n2CCN(C(=O)c2ccc(-c4cccs4)cc2)C3)cs1` [Compound 202, (3-(2-(2-methoxyphenyl)thiazol-4-yl)-5,6-dihydro-[1,2,4]triazolo[4,3-a]pyrazin-7(8H)-yl)(4-(thiophen-2-yl)phenyl)methanone], the inhibitory constant (Ki) was below 0.5 µM. For `O=C(c1ccc(-c2cccs2)cc1)N1CCn2c(nnc2-c2csc(-c3ccccc3F)n2)C1` [Compound 181, (3-(2-(2-fluorophenyl)thiazol-4-yl)-5,6-dihydro-[1,2,4]triazolo[4,3-a]pyrazin-7(8H)-yl)(4-(thiophen-2-yl)phenyl)methanone], the inhibition constant Ki is below 0.5 µM. To `COc1ccc(-c2nc(-c3nnc4n3CCN(C(=O)c3ccc(F)cc3)C4)cs2)cc1OC` [Compound 40, (3-(2-(3,4-dimethoxyphenyl)thiazol-4-yl)-5,6-dihydro-[1,2,4]triazolo[4,3-a]pyrazin-7(8H)-yl)(4-fluorophenyl)methanone] belongs below 0.5 µM; to `O=C(c1ccc(-c2ccc(F)cc2)cc1)N1CCn2c(nnc2-c2nc(-c3ccc(F)cc3)no2)C1` [Compound 205, (4′-fluoro-[1,1′-biphenyl]-4-yl)(3-(3-(4-fluorophenyl)-1,2,4-oxadiazol-5-yl)-5,6-dihydro-[1,2,4]triazolo[4,3-a]pyrazin-7(8H)-yl)methanone], 0.5 to 1 µM; to `Cc1nc(-c2ccccc2)sc1-c1nnc2n1CCN(C(=O)c1ccc(F)cc1)C2C` (stereo not shown) [Compound 75, (4-fluorophenyl)(8-methyl-3-(4-methyl-2-phenylthiazol-5-yl)-5,6-dihydro-[1,2,4]triazolo[4,3-a]pyrazin-7(8H)-yl)methanone], 0.5 to 1 µM.

Consider `CC1c2nnc(-c3csc(-c4ccc(F)cc4F)n3)n2CCN1C(=O)c1ccc(F)cc1` (stereo not shown) [Compound 77, (3-(2-(2,4-difluorophenyl)thiazol-4-yl)-8-methyl-5,6-dihydro-[1,2,4]triazolo[4,3-a]pyrazin-7(8H)-yl)(4-fluorophenyl)methanone], for which the inhibitory constant (Ki) was below 0.5 µM. Then `CC1c2nnc(-c3csc(N4CCOCC4)n3)n2CCN1C(=O)c1ccc(F)cc1` (stereo not shown) [Compound 52, (4-fluorophenyl)(8-methyl-3-(2-morpholinothiazol-4-yl)-5,6-dihydro-[1,2,4]triazolo[4,3-a]pyrazin-7(8H)-yl)methanone], with below 0.5 µM; and `O=C(c1ccc(-c2cccs2)cc1)N1CCn2c(nnc2-c2csc(-c3ccc(F)cc3F)n2)C1` [Compound 170, (3-(2-(2,4-difluorophenyl)thiazol-4-yl)-5,6-dihydro-[1,2,4]triazolo[4,3-a]pyrazin-7(8H)-yl)(4-(thiophen-2-yl)phenyl)methanone], with below 0.5 µM; and `O=C(c1ccc(-c2ccccc2)cc1)N1CCn2c(nnc2-c2csc(N3CCOCC3)n2)C1` [Compound 20, [1,1′-biphenyl]-4-yl(3-(2-morpholinothiazol-4-yl)-5,6-dihydro-[1,2,4]triazolo[4,3-a]pyrazin-7(8H)-yl)methanone], with below 0.5 µM. Then `O=C(c1ccc(F)cc1)N1CCn2c(nnc2-c2noc(-c3ccccc3)n2)C1` [Compound 173, (4-fluorophenyl)(3-(5-phenyl-1,2,4-oxadiazol-3-yl)-5,6-dihydro-[1,2,4]triazolo[4,3-a]pyrazin-7(8H)-yl)methanone], with below 0.5 µM; and `CC(C)c1nc(-c2nnc3n2CCN(C(=O)c2ccc(F)cc2)C3)cs1` [Compound 208, (4-fluorophenyl)(3-(2-isopropylthiazol-4-yl)-5,6-dihydro-[1,2,4]triazolo[4,3-a]pyrazin-7(8H)-yl)methanone], with 1 to 5 µM.

`CC(C)(C)OC(=O)NCCOc1ccccc1-c1nc(-c2nnc3n2CCN(C(=O)c2ccc(-c4cccs4)cc2)C3)cs1` [Compound 280, tert-butyl(2-(2-(4-(7-(4-(thiophen-2-yl)benzoyl)-5,6,7,8-tetrahydro-[1,2,4]triazolo[4,3-a]pyrazin-3-yl)thiazol-2-yl)phenoxy)ethyl)carbamate]: the inhibition constant Ki was below 0.5 µM.
